The values that follow come from ChEMBL document CHEMBL1129815, “Ester prodrugs of ampicillin tailored for intracellular accumulation” (Bioorg Med Chem Lett, 1997).

≈ marks a conversion by molar mass, not a printed value.

The first data set relates to Staphylococcus aureus. Nature of the data set: The minimum inhibition concentration (MIC) against Staphylococcus aureus after hydrolysis 24 hr in phosphate buffer was determined. Format: functional.
Conditions: not given
Regarding `CC1(C)S[C@@H]2[C@H](NC(=O)[C@H](N)c3ccccc3)C(=O)N2[C@H]1C(=O)OCN1C(=O)CC(=C2CCCCC2)C1=O` [listing 1 of 2 here], the MIC was determined as 1.16 µM (≈ 0.627 µg/mL).

`CC1(C)S[C@@H]2[C@H](NC(=O)[C@H](N)c3ccccc3)C(=O)N2[C@H]1C(=O)OCN1C(=O)c2ccccc2C1=O` [listing 1 of 2 here] registered an MIC of 0.53 µM (≈ 0.27 µg/mL). Same read-out and setting: for `CC(C)(C)C(=O)OCOC(=O)[C@@H]1N2C(=O)[C@@H](NC(=O)C(N)c3ccccc3)[C@H]2SC1(C)C` (single isomer, unassigned) [PIVAMPICILLIN] the value was 0.65 µM (≈ 0.301 µg/mL).

Tested on in another data set: not listed separately
Nature of the data set: Half-life in 0.02 M phosphate buffer, 0.15 M NaCl, at a pH of 7.4, at 37 degree Celsius was determined. Format: ADME. The following applies: pH 7.4.
On to `CC1(C)S[C@@H]2[C@H](NC(=O)[C@H](N)c3ccccc3)C(=O)N2[C@H]1C(=O)OCn1c(=O)oc2ccccc21`, for which the half-life was 2.5 h. On the same count and under the same terms, the same measure for `CC1(C)S[C@@H]2[C@H](NC(=O)[C@H](N)c3ccccc3)C(=O)N2[C@H]1C(=O)OCN1C(=O)CCCC1=O`: 3 h; for `CC1(C)S[C@@H]2[C@H](NC(=O)[C@H](N)c3ccccc3)C(=O)N2[C@H]1C(=O)OCN1C(=O)CCC1=O`: 2.5 h. On the same count and under the same terms, the same measure for `CC1(C)S[C@@H]2[C@H](NC(=O)[C@H](N)c3ccccc3)C(=O)N2[C@H]1C(=O)OCN1C(=O)CC(=C2CCCCC2)C1=O` [listing 2 of 2 here]: 5.13 h; for `CC1(C)S[C@@H]2[C@H](NC(=O)[C@H](N)c3ccccc3)C(=O)N2[C@H]1C(=O)OCN1C(=O)c2ccccc2S1(=O)=O`: 1.08 h. On the same count and under the same terms, the same measure for `CC1(C)S[C@@H]2[C@H](NC(=O)[C@H](N)c3ccccc3)C(=O)N2[C@H]1C(=O)OCOc1ccccc1`: 3.58 h; for `CC1(C)S[C@@H]2[C@H](NC(=O)[C@H](N)c3ccccc3)C(=O)N2[C@H]1C(=O)OCN1C(=O)c2ccccc2C1=O` [listing 2 of 2 here]: 1.08 h; for `CC(C)(C)C(=O)OCOC(=O)[C@@H]1N2C(=O)[C@@H](NC(=O)C(N)c3ccccc3)[C@H]2SC1(C)C` (single isomer, unassigned) [PIVAMPICILLIN]: 2 h.
